Where two headings read alike, the source gives them in different places.
Columns and labels:
[1] = biological target: T1, human plasma type α1,3FucT (Homo sapiens, UniProt Q11128); assay: Substrate specificity and inhibition study of α1,3FucT (GDP-14C-Fuc transfer assay); assay type: biochemical; conditions: for IC50 / Vrel (relative maximal velocities) / Km: 0.1 mM GDP-Fuc; for IC50: 10 mM Mn2+ and 10 mM LacNAc at pH 6.2 and 37° C.; for inhibition in combination with GDP: GDP present at its IC50 of 0.05 mM, FIG. 3: 34 mM Compound 50, 0.2 mM 14C-GDP-fucose, 20 mM MnCl2, pH 6.2; for mode of inhibition: versus LacNAc; for Vrel (relative maximal velocities): 10 mM MnCl2 and 10 mM Galβ1,4GlcNAc, Galβ1,4GlcNAc = 100; for Km: acceptor substrate, 10 mM MnCl2; for relative maximum velocity (Vrel) based on LacNAc: relative rate at Vmax
T1 sequence (Q11128 1-374): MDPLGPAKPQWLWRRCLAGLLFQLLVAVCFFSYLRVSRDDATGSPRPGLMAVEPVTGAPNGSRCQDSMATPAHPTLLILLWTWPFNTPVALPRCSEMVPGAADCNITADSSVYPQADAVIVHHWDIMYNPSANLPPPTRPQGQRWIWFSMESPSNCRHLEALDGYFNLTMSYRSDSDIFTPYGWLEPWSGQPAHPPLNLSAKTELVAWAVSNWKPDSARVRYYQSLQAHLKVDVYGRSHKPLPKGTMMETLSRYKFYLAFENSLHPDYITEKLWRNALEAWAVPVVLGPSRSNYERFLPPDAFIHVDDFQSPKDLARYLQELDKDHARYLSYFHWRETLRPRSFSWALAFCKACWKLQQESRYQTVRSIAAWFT
Experimental: (§1) The assay procedure was essentially the same as described previously [Fukowska-Latallo et al, Gene & Development, 4:1288 (1990)] with some modifications. A stock mixture containing 0.25 mM GDP-^14C-Fuc (5000 cpm/mL), 6.25 mM ATP, 25 mM MnCl2 and 62.5 mM sodium cacodylate buffer, pH 6.2 was mixed freshly and kept on ice. […] The incubation was carried out at 37° C. for 30 to 240 minutes depending upon the acceptor under study. Separate assays in the absence of acceptor were used to correct for background hydrolysis of GDP-Fuc. Upon completion of incubation, 400 μL of a 25 percent (v/v) suspension of QAE-Sephadex was added. […] From the supernatant fluid, 200 μL were extracted and mixed with 10 mL of scintillation cocktail. The radioactivity was counted on a scintillation counter. […] This assay can be run in the absence of ATP.

GalT = biological target: T2, GalT (Bos taurus, UniProt P08037); conditions: cited from earlier work
T2 construct: purchased Sigma
T2 sequence (P08037 79-402 limits assumed): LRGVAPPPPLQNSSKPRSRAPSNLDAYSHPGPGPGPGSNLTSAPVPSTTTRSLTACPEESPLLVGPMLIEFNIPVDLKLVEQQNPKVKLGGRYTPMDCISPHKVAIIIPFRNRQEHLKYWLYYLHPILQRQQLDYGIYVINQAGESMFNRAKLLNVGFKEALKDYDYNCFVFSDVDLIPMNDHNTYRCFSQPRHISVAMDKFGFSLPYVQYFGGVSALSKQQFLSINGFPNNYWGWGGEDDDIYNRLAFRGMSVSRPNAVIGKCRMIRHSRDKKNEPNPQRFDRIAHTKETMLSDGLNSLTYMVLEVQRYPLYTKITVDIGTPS

α1,3/4Fucosyltransferase = biological target: T3, α1,3/4Fucosyltransferase (Homo sapiens, UniProt P21217); assay: Substrate specificity and inhibition study of α1,3/4FucT (GDP-14C-Fuc transfer assay); assay type: biochemical; conditions: for Vrel (relative velocities): 0.20 mM GDP-Fuc, 20 mM MnCl2, 10 mM acceptor, Galβ1,4GlcNAc = 100
T3 sequence (P21217 1-361): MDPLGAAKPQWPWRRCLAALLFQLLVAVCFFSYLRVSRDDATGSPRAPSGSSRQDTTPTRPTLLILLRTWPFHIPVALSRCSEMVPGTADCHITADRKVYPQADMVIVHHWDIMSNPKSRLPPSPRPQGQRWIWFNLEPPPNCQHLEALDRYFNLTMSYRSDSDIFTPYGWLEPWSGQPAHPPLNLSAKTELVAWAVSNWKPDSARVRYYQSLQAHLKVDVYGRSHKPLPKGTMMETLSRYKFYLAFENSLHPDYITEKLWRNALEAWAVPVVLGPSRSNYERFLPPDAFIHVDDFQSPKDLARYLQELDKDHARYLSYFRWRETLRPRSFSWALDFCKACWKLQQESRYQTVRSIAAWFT
Experimental: as §1

`OCC1N[C@@H](CO)C(O)[C@@H]1O` (stereo partly drawn) gave an IC50 [1] of 52 mM.

For `CC1N[C@@H](CO)C(O)[C@@H]1O` (stereo partly drawn) [Compound 50, (2R)-Methyl-(5S)-hydroxymethyl-(3R, 4R)-dihydroxyprollidine], the IC50 [1] was 34 mM, the “inhibition in combination with GDP” value [1] was “profound, synergistic inhibition” and the mode of inhibition [1] was “competitive inhibitor”.

For `CC1NC(CO)C(O)C1O` (stereo not drawn) [Compound 53], the IC50 [1] was 80 mM, the “inhibition in combination with GDP” value [1] was “profound, synergistic inhibition” and the mode of inhibition [1] was “competitive inhibitor”.

For `OC[C@H]1NC[C@H](O)[C@@H](O)[C@@H]1O` [Deoxynojirimycin], the “substrate for α1,4GalT (in words)” value (GalT; Wong et al., J. Am. Chem. Soc., 113:8137-8145 (1991)) is listed as “a substrate”.

With `Nc1nc2c(ncn2[C@@H]2O[C@H](COP(=O)(O)OP(=O)(O)O)[C@@H](O)[C@H]2O)c(=O)[nH]1` [GDP, guanosine 5′-diphosphate] the IC50 [1] was 0.05 mM, the Ki ([1]; footnote of Table 3, read-out: Ki) was 19 mM and the Ki ([1]; noncompetitive inhibitor versus LacNAc, read-out: Kii) was 0.13 mM. For the same compound, the Ki ([1]; noncompetitive inhibitor versus LacNAc, read-out: Kis) was 0.16 mM and the mode of inhibition [1] was “noncompetitive inhibitor”.

With `C[C@@H]1OC(OP(=O)(O)OP(=O)(O)OC[C@H]2O[C@@H](n3cnc4c(=O)[nH]c(N)nc43)[C@H](O)[C@@H]2O)[C@@H](O)[C@H](O)[C@@H]1O` (stereo partly drawn) [GDP-Fuc, guanosine 5′-diphospho fucose] the “inhibition of α1,3/4FucT (in words)” value (α1,3/4Fucosyltransferase) was “not an inhibitor” and the “inhibition of α1,3FucT (in words)” value ([1]; at concentration above 0.2 mM in the presence of 10 mM LacNAc) was “potent inhibitor”.

With `Nc1nc2c(ncn2C2OC(COP(=O)(O)OP(=O)(O)OC3OC(CO)C(O)C(O)C3O)C(O)C2O)c(=O)[nH]1` (stereo not drawn) [GDP-Man, guanosine 5′-diphospho-mannose] the IC50 [1] was 2 mM.

For `CC(=O)N[C@H]1C(O)O[C@H](CO)[C@H](O)[C@@H]1O[C@@H]1O[C@H](CO)[C@H](O)[C@H](O)[C@H]1O` (stereo partly drawn) [Galβ1,3GalNAc], the IC50 [1] was over 100 mM.

With `CC(=O)N[C@H]1C(O)O[C@H](CO)[C@@H](O)[C@@H]1O[C@@H]1O[C@H](CO)[C@H](O)[C@H](O)[C@H]1O` (stereo partly drawn) [Galβ1,3GlcNAc] the “Vrel (relative velocities)” value (α1,3/4Fucosyltransferase) was 580, the IC50 [1] was over 50 mM and the “Vrel (relative maximal velocities)” value [1] was 130.

For `C=CCO[C@@H]1O[C@H](CO)[C@@H](O[C@@H]2O[C@H](CO)[C@H](O)[C@H](O)[C@H]2O)C[C@H]1NC(C)=O` [Galβ1,4(3-deoxy)GlcNAcβOallyl], the “inhibition of α1,3FucT (in words)” value ([1]; acceptor substrate analog) was “weak inhibitor”.

For `OC[C@H]1O[C@@H](O[C@H]2[C@H](O)[C@@H](O)C(O)S[C@@H]2CO)[C@H](O)[C@@H](O)[C@H]1O` (stereo partly drawn) [Galβ1,4(5-thioGlc), Galβ1,4(5-thio)Glc], the “Vrel (relative velocities)” value (α1,3/4Fucosyltransferase) was 310, the “Vrel (relative maximal velocities)” value [1] was 51 and the Km [1] was 12 mM.

With `CC(=O)N[C@H]1C(O)O[C@H](CO)[C@H](O[C@@H]2O[C@H](CO)[C@H](O)[C@H](O)[C@H]2O)[C@@H]1O` (stereo partly drawn) [Galβ1,4GalNAc] the “Vrel (relative velocities)” value (α1,3/4Fucosyltransferase) was 27.

With `C=CCO[C@@H]1O[C@H](CO)[C@@H](O[C@@H]2O[C@H](CO)[C@H](O)[C@H](O)[C@H]2O)[C@H](O)[C@H]1NC(C)=O` [Galβ1,4GlcNAcβOallyl] the “Vrel (relative maximal velocities)” value [1] was 64 and the Km [1] was 16 mM.

For `OC[C@H]1O[C@@H](O[C@H]2[C@H](O)[C@@H](O)C(O)O[C@@H]2CO)[C@H](O)[C@@H](O)[C@H]1O` (stereo partly drawn) [Galβ1,4Glc], the “Vrel (relative velocities)” value (α1,3/4Fucosyltransferase) was 120, the “Vrel (relative maximal velocities)” value [1] was 150 and the “relative maximum velocity (Vrel) based on LacNAc” value (from here on “relative maximum velocity”) [1] was 150%.

Compound `OC[C@H]1NC[C@H](O)[C@@H](O)[C@@H]1O[C@@H]1O[C@H](CO)[C@H](O)[C@H](O)[C@H]1O` [Galβ1,4deoxynojirimycin] has an IC50 (α1,3/4Fucosyltransferase; inhibitor concentration required to give 50% inhibition with 0.2 mM GDP-Fuc) of 40 mM and an IC50 [1] of 8 mM.

For `CC(=O)N[C@H]1C(O)O[C@H](CO)[C@@H](O)[C@@H]1O` (stereo partly drawn) [GlcNAc, N-acetylglucosamine], the Km (GalT; reported in Palcic et al., Carbohydr. Res., 159:315 (1987)) is listed as 1.3 ± 1 mM.

For `CC(=O)N[C@H]1[C@H](O[C@H]2[C@H](O)[C@@H](NC(C)=O)C(O)O[C@@H]2CO)O[C@H](CO)[C@@H](O)[C@@H]1O` (stereo partly drawn) [GlcNAcβ1,4GlcNAc], the “Vrel (relative velocities)” value (α1,3/4Fucosyltransferase) was 23 and the IC50 [1] was over 50 mM.

In the case of `CC(=O)N[C@H]1[C@H](OC[C@H]2O[C@@H](O[C@H]3[C@H](O)[C@@H](O)C(O)O[C@@H]3CO)[C@H](O)[C@@H](O)[C@H]2O)O[C@H](CO)[C@@H](O)[C@@H]1O` (stereo partly drawn) [GlcNAcβ1,6Galβ1,4Glc], the “Vrel (relative velocities)” value (α1,3/4Fucosyltransferase) is reported as 13.

In the case of `CC(=O)NC1C(O)OC(CO)C(OC2OC(CO)C(O)C(OC3(C(=O)O)CC(O)C(NC(C)=O)C(C(O)C(O)CO)O3)C2O)C1O` (stereo not drawn) [NeuAcα2,3Galβ1,4GlcNAc], the “Vrel (relative velocities)” value (α1,3/4Fucosyltransferase) is reported as 60, the “Vrel (relative maximal velocities)” value [1] is reported as 620 and the Km [1] is reported as 100 mM. The “relative maximum velocity” value [1] was 620%.

In the case of `CC(=O)N[C@H]1C([C@H](O)[C@H](O)CO)O[C@@](OC2[C@H](O)C(O[C@H]3C(O)C=COC3CO)OC(CO)[C@@H]2O)(C(=O)O)C[C@H]1O` (stereo partly drawn) [NeuAcα2,3Galβ1,4Glucal], the “Vrel (relative maximal velocities)” value [1] is reported as 330, the Km [1] is reported as 64 mM and the “relative maximum velocity” value [1] is reported as 330%.

With `CC(=O)N[C@@H]1[C@@H](O)[C@H](O[C@@H]2O[C@H](CO[C@]3(C(=O)O)C[C@H](O)[C@@H](NC(C)=O)[C@H]([C@H](O)[C@H](O)CO)O3)[C@H](O)[C@H](O)[C@H]2O)[C@@H](CO)O[C@H]1O` [NeuAcα2,6Galβ1,4GlcNAc] the “Vrel (relative maximal velocities)” value [1] was 13, the Km [1] was 70 mM and the “times less active as a substrate than the α2,3-isomer” value ([1]; compared with NeuAcα2,3Galβ1,4GlcNAc) was “about 50 times”.

For Fucα1,2Galβ1,4Glc, the “Vrel (relative velocities)” value (α1,3/4Fucosyltransferase) was 250.

For Galβ1,4GlcNAc, the “Vrel (relative velocities)” value (α1,3/4Fucosyltransferase) was 100, the “Vrel (relative maximal velocities)” value [1] was 100 and the Km [1] was 35 mM.

For NeuAcα2,3Galβ1,4GlcNAcβOallyl, the “Vrel (relative maximal velocities)” value [1] was 380.
